Test results taken from ChEMBL document CHEMBL5331129, “Discovery of NAFLD-Improving Agents by Promoting the Degradation of Keap1” (J Med Chem, 2023).
Active and inactive are the calls of the source. The calls are words filed in the database; no cut-off is given here.

Key:
[1] = target: Protein cereblon/Kelch-like ECH-associated protein 1 (Mus musculus, UniProt Q9Z2X8+Q8C7D2); test: PROTAC activity at CRBN/Keap1 in mouse AML12 cells assessed as degradation of Keap1 protein at 0.5 to 2 uM incubated for 48 hrs by Western blotting analysis; assay type: cell-based
Protein cereblon/Kelch-like ECH-associated protein 1 (Mus musculus, UniProt Q9Z2X8+Q8C7D2), sequence (Q9Z2X8 whole entry): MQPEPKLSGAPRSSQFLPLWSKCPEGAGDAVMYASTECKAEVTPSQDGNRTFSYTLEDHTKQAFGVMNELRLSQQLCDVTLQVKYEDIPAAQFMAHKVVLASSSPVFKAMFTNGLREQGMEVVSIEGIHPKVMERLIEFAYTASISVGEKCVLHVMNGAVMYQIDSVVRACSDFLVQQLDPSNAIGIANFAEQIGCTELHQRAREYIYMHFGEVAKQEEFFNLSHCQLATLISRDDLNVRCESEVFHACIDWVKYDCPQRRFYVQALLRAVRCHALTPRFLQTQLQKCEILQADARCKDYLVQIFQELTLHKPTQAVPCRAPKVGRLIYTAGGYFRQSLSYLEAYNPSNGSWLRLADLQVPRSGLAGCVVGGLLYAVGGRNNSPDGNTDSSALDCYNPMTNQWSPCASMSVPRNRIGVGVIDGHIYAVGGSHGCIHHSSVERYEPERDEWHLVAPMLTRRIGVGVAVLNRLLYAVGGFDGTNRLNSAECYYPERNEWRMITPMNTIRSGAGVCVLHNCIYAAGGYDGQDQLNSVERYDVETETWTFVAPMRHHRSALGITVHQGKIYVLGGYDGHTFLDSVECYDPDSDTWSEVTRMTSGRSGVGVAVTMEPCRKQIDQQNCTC
Protein cereblon/Kelch-like ECH-associated protein 1 (Mus musculus, UniProt Q9Z2X8+Q8C7D2), sequence (Q8C7D2 whole entry): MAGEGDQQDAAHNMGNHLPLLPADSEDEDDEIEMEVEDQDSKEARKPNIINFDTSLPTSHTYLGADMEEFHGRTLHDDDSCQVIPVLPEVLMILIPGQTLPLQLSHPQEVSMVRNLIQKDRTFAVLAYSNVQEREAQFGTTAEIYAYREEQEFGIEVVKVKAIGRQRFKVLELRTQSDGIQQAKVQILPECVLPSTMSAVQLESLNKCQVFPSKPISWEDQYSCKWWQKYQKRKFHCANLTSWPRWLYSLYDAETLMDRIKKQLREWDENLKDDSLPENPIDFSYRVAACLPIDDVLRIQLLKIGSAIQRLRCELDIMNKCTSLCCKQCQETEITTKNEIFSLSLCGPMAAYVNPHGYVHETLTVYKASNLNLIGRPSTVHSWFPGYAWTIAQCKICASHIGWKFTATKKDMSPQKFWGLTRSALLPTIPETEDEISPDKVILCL

[2] = target: T1, Protein cereblon/Kelch-like ECH-associated protein 1 (Mus musculus) (UniProt Q9Z2X8+Q8C7D2); test: PROTAC activity at CRBN/Keap1 in mouse AML12 cells assessed as degradation of Keap1 protein level at 1 uM preincubated with proteasome inhibitor, MG-132 followed by compound addition and incubated for 24 hrs by Western blotting analysis; assay type: cell-based
T1 sequence (Q8C7D2 whole entry, looked up): as the sequence (Q8C7D2 whole entry) above
T1 sequence (Q9Z2X8 whole entry, looked up): as the sequence (Q9Z2X8 whole entry) above

AML12 [3] = test: Antioxidant activity against free fatty acid induced oxidative stress in mouse AML12 cells assessed as downregulation of Keap1 protein expression level at 0.125 to 0.5 uM incubated for 24 hrs by immunofluorescence staining analysis; assay type: functional, cell-based; conditions: dose 0.125-0.5 µM
[4] = Toxicity in C57BL/6 mouse assessed as histopathological change in kidney at 2 mg/kg,ip qd administrated for 4 weeks by hematoxylin and eosin staining based assay; assay type: organism-based; conditions: in vivo, 672 h
AML12 [5] = test: Antioxidant activity against free fatty acid induced oxidative stress in mouse AML12 cells assessed as reduction in intracellular lipid accumulation at 0.5 uM incubated for 24 hrs by Oil Red O staining based microscopic analysis; assay type: functional, cell-based
AML12 [6] = test: Antioxidant activity against free fatty acid induced oxidative stress in mouse AML12 cells assessed as decrease in ROS level at 0.125 to 0.5 uM incubated for 24 hrs; assay type: functional, cell-based; conditions: dose 0.125-0.5 µM
Mus musculus [7] = test: Antioxidant activity against MCD diet-induced oxidative stress in C57Bl/6 mouse model of NAFLD assessed as reduction of serum TG level at 0.5 to 2 mg/kg,ip administrated for 4 weeks; assay type: functional, organism-based; conditions: dose 0.5-2 mg/kg
[8] = target: Protein cereblon/Kelch-like ECH-associated protein 1 (Mus musculus, UniProt Q8C7D2+Q9Z2X8); test: PROTAC activity at CRBN/Keap1 in mouse AML12 cells assessed as reduction of Keap1 protein incubated for 24 hrs by Western blotting analysis; assay type: cell-based
Protein cereblon/Kelch-like ECH-associated protein 1 (Mus musculus, UniProt Q8C7D2+Q9Z2X8), sequence (Q9Z2X8 whole entry): as above
Protein cereblon/Kelch-like ECH-associated protein 1 (Mus musculus, UniProt Q8C7D2+Q9Z2X8), sequence (Q8C7D2 whole entry): as the sequence (Q8C7D2 whole entry) above

[9] = target: T1, Protein cereblon/Kelch-like ECH-associated protein 1 (Mus musculus); test: PROTAC activity at CRBN/Keap1 in mouse AML12 cells assessed as degradation of Keap1 protein incubated for 6 to 48 hrs by Western blotting analysis; assay type: cell-based; conditions: time 6-48 hrs
AML12 [10] = test: Antioxidant activity against free fatty acid induced oxidative stress in mouse AML12 cells assessed as reduction in total cholesterol level at 0.5 uM incubated for 24 hrs; assay type: functional, cell-based
Mus musculus [11] = test: Antioxidant activity against MCD diet-induced oxidative stress in C57Bl/6 mouse model of NAFLD assessed as upregulation of liver Nrf2 protein expression level at 0.5 to 2 mg/kg,ip administrated for 4 weeks by immunoblot analysis; assay type: functional, organism-based; conditions: dose 0.5-2 mg/kg
Mus musculus [12] = test: Antioxidant activity against MCD diet-induced oxidative stress in C57Bl/6 mouse model of NAFLD assessed as downregulation of liver Keap1 protein expression level at 0.5 to 2 mg/kg,ip administrated for 4 weeks by immunoblot analysis; assay type: functional, organism-based; conditions: dose 0.5-2 mg/kg
Mus musculus [13] = test: Antioxidant activity against MCD diet-induced oxidative stress in C57Bl/6 mouse model of NAFLD assessed as increase in serum HDL-C level at ip administrated for 4 weeks; assay type: functional, organism-based
Mus musculus [14] = test: Antioxidant activity against MCD diet-induced oxidative stress in C57Bl/6 mouse model of NAFLD assessed as reduction of serum TC level at 0.5 to 2 mg/kg,ip administrated for 4 weeks; assay type: functional, organism-based; conditions: dose 0.5-2 mg/kg
[15] = Acute toxicity in C57BL/6 mouse assessed as histopathological change in liver at 20 mg/kg,ip qd administrated for 3 consecutive days and measured on day 4 by hematoxylin and eosin staining based assay; assay type: organism-based; conditions: in vivo
[16] = Cardiotoxicity in zebrafish at 10 uM observed at 48 hrs post fertilization; assay type: toxicity, Danio rerio
[17] = Toxicity in C57BL/6 mouse assessed as histopathological change in lung at 2 mg/kg,ip qd administrated for 4 weeks by hematoxylin and eosin staining based assay; assay type: organism-based; conditions: in vivo, 672 h
Mus musculus [18] = test: Antioxidant activity against MCD diet-induced oxidative stress in C57Bl/6 mouse model of NAFLD assessed as downregulation of liver Keap1 protein expression level at 0.5 to 2 mg/kg,ip administrated for 4 weeks by immunohistochemical staining assay; assay type: functional, organism-based; conditions: dose 0.5-2 mg/kg
Mus musculus [19] = test: Antioxidant activity against MCD diet-induced oxidative stress in C57Bl/6 mouse model of NAFLD assessed as upregulation of liver HO-1 protein expression level at 0.5 to 2 mg/kg,ip administrated for 4 weeks by immunohistochemical staining assay; assay type: functional, organism-based; conditions: dose 0.5-2 mg/kg
AML12 [20] = test: Antioxidant activity against free fatty acid induced oxidative stress in mouse AML12 cells assessed as downregulation of Keap1 protein expression level at 0.125 to 0.5 uM incubated for 24 hrs by immunoblot analysis; assay type: functional, cell-based; conditions: dose 0.125-0.5 µM
Mus musculus [21] = test: Antioxidant activity against MCD diet-induced oxidative stress in C57Bl/6 mouse model of NAFLD assessed as upregulation of liver NQO1 protein expression level at 0.5 to 2 mg/kg,ip administrated for 4 weeks by immunohistochemical staining assay; assay type: functional, organism-based; conditions: dose 0.5-2 mg/kg
Mus musculus [22] = test: Antioxidant activity against MCD diet-induced oxidative stress in C57Bl/6 mouse model of NAFLD assessed as reduction of serum aminotransferase level at 0.5 to 2 mg/kg,ip administrated for 4 weeks; assay type: functional, organism-based; conditions: dose 0.5-2 mg/kg
[23] = Acute toxicity in zebrafish at < 5 uM observed at 48 hrs post fertilization; design: species or system Danio rerio; conditions: in vivo
Mus musculus [24] = test: Antioxidant activity against MCD diet-induced oxidative stress in C57Bl/6 mouse model of NAFLD assessed as reduction of serum LDL-C level at ip administrated for 4 weeks; assay type: functional, organism-based
Mus musculus [25] = test: Antioxidant activity against MCD diet-induced oxidative stress in C57Bl/6 mouse model of NAFLD assessed as reduction of hepatic steatosis in liver at ip administrated for 4 weeks by hematoxylin and eosin staining based assay; assay type: functional, organism-based
AML12 [26] = test: Antioxidant activity against free fatty acid induced oxidative stress in mouse AML12 cells assessed as upregulation of Nrf2 protein expression level at 0.125 to 0.5 uM incubated for 24 hrs by immunofluorescence staining analysis; assay type: functional, cell-based; conditions: dose 0.125-0.5 µM
[27] = target: Kelch-like ECH-associated protein 1 (Homo sapiens, UniProt Q14145); test: Binding affinity to Keap1 (unknown origin) assessed as dissociation constant incubated for 200 sec by sensor chip immobilization based surface plasmon resonance analysis
Kelch-like ECH-associated protein 1, sequence (Q14145 whole entry): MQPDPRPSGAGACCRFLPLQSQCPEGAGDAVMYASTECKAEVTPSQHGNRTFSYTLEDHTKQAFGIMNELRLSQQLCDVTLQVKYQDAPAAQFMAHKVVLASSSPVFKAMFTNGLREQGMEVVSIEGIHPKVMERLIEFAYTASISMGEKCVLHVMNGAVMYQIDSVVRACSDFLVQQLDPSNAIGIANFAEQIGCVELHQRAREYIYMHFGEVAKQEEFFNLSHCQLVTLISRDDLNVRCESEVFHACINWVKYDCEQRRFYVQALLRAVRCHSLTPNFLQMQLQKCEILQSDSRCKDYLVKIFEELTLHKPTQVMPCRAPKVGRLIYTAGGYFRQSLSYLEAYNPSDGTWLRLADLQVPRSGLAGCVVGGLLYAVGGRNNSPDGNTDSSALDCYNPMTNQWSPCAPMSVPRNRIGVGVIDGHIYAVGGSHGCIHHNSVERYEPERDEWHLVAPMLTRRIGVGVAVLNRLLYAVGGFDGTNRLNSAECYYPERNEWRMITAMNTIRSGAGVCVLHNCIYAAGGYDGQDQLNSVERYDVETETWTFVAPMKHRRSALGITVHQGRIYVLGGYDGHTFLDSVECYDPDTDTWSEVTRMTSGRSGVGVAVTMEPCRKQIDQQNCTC

Mus musculus [28] = test: Antioxidant activity against MCD diet-induced oxidative stress in C57Bl/6 mouse model of NAFLD assessed as increase in CAT level in liver at 0.5 to 2 mg/kg,ip administrated for 4 weeks; assay type: functional, organism-based; conditions: dose 0.5-2 mg/kg
[29] = Toxicity in C57BL/6 mouse assessed as histopathological change in spleen at 2 mg/kg,ip qd administrated for 4 weeks by hematoxylin and eosin staining based assay; assay type: organism-based; conditions: in vivo, 672 h

Which DC50 [1] does the source give for CC1(C)CC[C@]2(C(=O)NCCCCCNc3cccc4c3C(=O)N(C3CCC(=O)NC3=O)C4=O)CC[C@]3(C)[C@H](C(=O)C=C4C5(C)C=C(C#N)C(=O)C(C)(C)[C@@H]5CC[C@]43C)[C@@H]2C1 (single isomer, unassigned) here?
Its DC50 is 0.21 µM.

What about the Activity [2] of the same compound?
The Activity was “inactive”.

And the Activity (AML12 [3])?
Its Activity is “Active”.

What about the Activity [4] of the same compound?
Its Activity is “Non-Toxic”.

What about the Activity (AML12 [5]) of the same compound?
The Activity was “Active”.

And the Activity (AML12 [6])?
Its Activity is “Active”.

What about the Activity (Mus musculus [7]) of the same compound?
Its Activity is “Active”.

And the IC50 [8]?
The IC50 was 18.2 µM.

What about the Activity [9] of the same compound?
The Activity was “Dose-Dependent Effect”.

And the Activity (AML12 [10])?
The Activity was “inactive”.

What about the Activity (Mus musculus [11]) of the same compound?
The Activity was “Dose-Dependent Effect”.

And the Activity (Mus musculus [12])?
The Activity was “Dose-Dependent Effect”.

What about the Activity (Mus musculus [13]) of the same compound?
The Activity was “Dose-Dependent Effect”.

And the Activity (Mus musculus [14])?
The Activity was “Active”.

What about the Activity [15] of the same compound?
Its Activity is “Non-Toxic”.

What about the Activity [16] of the same compound?
Its Activity is “Non-Toxic”.

And the Activity [17]?
Its Activity is “Non-Toxic”.

What about the Activity (Mus musculus [18]) of the same compound?
Its Activity is “Dose-Dependent Effect”.

What about the Activity (Mus musculus [19]) of the same compound?
The Activity was “Dose-Dependent Effect”.

What about the Activity (AML12 [20]) of the same compound?
Its Activity is “Active”.

What about the Activity (Mus musculus [21]) of the same compound?
The Activity was “Dose-Dependent Effect”.

What about the Activity (Mus musculus [22]) of the same compound?
Its Activity is “Active”.

What about the Activity [23] of the same compound?
The Activity was “Non-Toxic”.

And the Activity (Mus musculus [24])?
The Activity was “Dose-Dependent Effect”.

And the Activity (Mus musculus [25])?
The Activity was “Dose-Dependent Effect”.

What about the Activity (AML12 [26]) of the same compound?
The Activity was “Active”.

What about the Kd [27] of the same compound?
Its Kd is 11.9 µM.

What about the Activity (Mus musculus [28]) of the same compound?
The Activity was “Active”.

And the Activity [29]?
Its Activity is “Non-Toxic”.
